Results on three molecules are retold here after article PMC7279231 (International Journal of Molecular Sciences, 2020).

In series [1] the test system is human cancer cells (breast, bladder, colorectal cancer cell lines, acute myelogenous leukemia, osteosarcoma cells). Details: method as in PMID 26286663. As to conditions: cited from earlier work.
Series [2] relates to HepG2 cells. Put plainly: Cytotoxicity over the MTT, NRU, TPC and LDH assays, HepG2. The format is cell-based, human. As to conditions: HepG2, up to 1 μM, Figure S5. How it is done: (§1) The human hepatoma cell line (HepG2) was purchased from the American Type Culture Collection (ATCC HB-8065). These cells were cultured in Minimum Essential Medium Eagle (MEME) (ATCC). The murine fibroblast cell line (Balb/c 3T3 clone A31) was purchased from the American Type Culture Collection (ATCC CCL-163), and the cells were cultured in Dulbecco’s Modified Eagle’s Medium (DMEM) (ATCC). The media were supplemented with 10% BCS (Balb/c 3T3), 10% FBS (HepG2), 1% L-glutamine, and 1% antibiotic solution. The cells were maintained in 75-cm^2 cell culture flasks (NUNC, Roskilde, Denmark) in a humidified incubator, NuAire (Plymouth, MN, USA) at 37 °C and 5% CO2. […]
(§2) As a control, cultured cells were grown in the absence of the studied compounds. […] Cytotoxicity was assessed after 72 h of cell exposure to the compounds in darkness. […]
(§3) MTT assay. The metabolic activity of living cells was assessed by the measurement of the activity of dehydrogenases. […] The plate was shaken for 15 min at room temperature and transferred to a microplate reader (Synergy HTX multi-mode reader (BioTek® Instruments Inc., Winooski, VT, USA)) to measure the absorbance at 570 nm, using a blank as a reference. Cytotoxicity was expressed as a percentage of the negative control (0.1% DMSO).
(§4) NRU assay. […] Cytotoxicity was expressed as a percentage of the negative control (0.1% DMSO). […]

The conditions of series [3]: cited from earlier work.
Series [4] relates to Balb/c 3T3 fibroblasts. Put plainly: Cytotoxicity over the MTT, NRU, TPC and LDH assays, Balb/c 3T3. The format is cell-based, murine. Conditions: Balb/c 3T3, up to 1 μM, Figure S5. On the procedure:
as §1, §2, §3, §4

Series [5] has as its system HepG2 cells. The experiment in a line: MTT assay (mitochondrial activity), HepG2. Type of series: cell-based, human. On the procedure:
(§5) The human hepatoma cell line (HepG2) was purchased from the American Type Culture Collection (ATCC HB-8065). These cells were cultured in Minimum Essential Medium Eagle (MEME) (ATCC). The murine fibroblast cell line (Balb/c 3T3 clone A31) was purchased from the American Type Culture Collection (ATCC CCL-163), and the cells were cultured in Dulbecco’s Modified Eagle’s Medium (DMEM) (ATCC). The media were supplemented with 10% BCS (Balb/c 3T3), 10% FBS (HepG2), 1% L-glutamine, and 1% antibiotic solution. The cells were maintained in 75-cm^2 cell culture flasks (NUNC, Roskilde, Denmark) in a humidified incubator, NuAire (Plymouth, MN, USA) at 37 °C and 5% CO2. The medium was refreshed every two days and the cells were trypsinized by 0.25% trypsin–0.02% EDTA after reaching 70–80% confluence. Then, cell suspensions at a density of 2 × 10^5 cells/mL (HepG2) and 5 × 10^4 cells/mL (Balb/c 3T3) were transferred to 96-well plates (100 μL/well) and incubated for 24 h before the exposure to the studied compounds.
(§6) As a control, cultured cells were grown in the absence of the studied compounds. Each concentration was tested in six replicates in three independent experiments. Cytotoxicity was assessed after 72 h of cell exposure to the compounds in darkness. The medium was not changed during the incubation time.
(§7) MTT assay. The metabolic activity of living cells was assessed by the measurement of the activity of dehydrogenases. After incubation of the cells with the study compound, 10 μL of the MTT solution (5 mg/mL in phosphate buffered saline (PBS)) was added to each well of the 96-well plate and incubated. After 3 h, the MTT solution was removed, and intracellular formazan crystals were dissolved in 100 μL DMSO. The plate was shaken for 15 min at room temperature and transferred to a microplate reader (Synergy HTX multi-mode reader (BioTek® Instruments Inc., Winooski, VT, USA)) to measure the absorbance at 570 nm, using a blank as a reference. Cytotoxicity was expressed as a percentage of the negative control (0.1% DMSO).
(§8) The study was performed in three independent experiments. […] Assessment of the cytotoxicity data used a one-way analysis of variance (ANOVA) followed by Dunnett’s post-hoc test, which was applied to determine significance relative to the negative control. The cytotoxicity concentration (IC20 and IC50) necessary for 20% and 50% inhibition of cell viability, respectively, by the drug was calculated using GraphPad Prism 5.0. Statistical comparisons among IC50 values were performed by the analysis of variance (ANOVA) followed by the Tukey test, and differences were considered statistically significant at p ≤ 0.05.
(In general: Tetrazolium assays rely on reduction of a dye to a coloured formazan, in cell work by metabolically active cells.)

Series [6] deals with Balb/c 3T3 fibroblasts. Put plainly: NRU assay (lysosomal activity), Balb/c 3T3. The format is cell-based, murine. On the procedure: as §5, §6
(§9) NRU assay. This method is based on staining living cells with neutral red which readily diffuses through the plasma membrane and accumulates in lysosomes. After the incubation, the medium containing the drug was removed, and the cells were washed with PBS. Then, 100 μL/well of NR solution (50 μg/mL) was added for 3 h. After this time, the cells were washed with PBS. The dye from viable cells was released by extraction with a mixture of acetic acid, ethanol, and water (1:50:49, v:v:v). After 10 min of shaking, the absorbance of the dissolved NR was measured using a Synergy HTX multi-mode reader (BioTek® Instruments Inc., Winooski, VT, USA) at 540 nm using a blank as a reference. Cytotoxicity was expressed as a percentage of the negative control (0.1% DMSO).
as §8

The test system of series [7] is Balb/c 3T3 fibroblasts. The experiment in a line: TPC assay (total protein content), Balb/c 3T3. The format is cell-based, murine. On the procedure: as §5, §6
(§10) TPC assay. The assay was based upon staining total cellular protein (proliferation). After the incubation, the medium containing drug was removed and 100 μL of Coomassie brilliant blue R-250 dye was added to each well. The plate was shaken for 10 min. Then, the stain was removed and the cells were rinsed twice with 100 μL of washing solution (glacial acetic acid/ethanol/water, 5:10:85, v:v:v). After that, 100 μL of the desorbing solution (1 M potassium acetate) was added, and plates were shaken again for 10 min. The absorbance was measured at 595 nm in a microplate reader (Synergy HTX multi-mode reader (BioTek® Instruments Inc., Winooski, VT, USA)) using a blank as a reference. Cytotoxicity was expressed as a percentage of the negative control (0.1% DMSO).
as §8

For series [8], the system named is HepG2 cells. Put plainly: LDH leakage assay (cellular membrane integrity), HepG2. Type of series: cell-based, human. On the procedure: as §5, §6
LDH leakage assay. The integrity of the plasma membrane was assessed through the test of lactate dehydrogenase (LDH) release, which was monitored using the commercially available Cytotoxicity Detection Kit (LDH) (Roche Diagnostics, Warsaw, Poland). The medium (100 μL/well) without cells was transferred into the corresponding wells of an optically clear 96-well flat-bottom microplate, and 100 μL of reaction mixture was added to each well. Then, the plates were incubated for 30 min at room temperature in darkness. After that time, 50 μL/well of 1 M HCl was added to stop the reaction. The absorbance was measured at 492 nm in a microplate reader (Synergy HTX multi-mode reader (BioTek® Instruments Inc., Winooski, VT, USA)) using a blank as a reference. […]
Background: Release of lactate dehydrogenase indicates damage to the cell membrane.

Series [9] relates to HepG2 cells. The experiment in a line: NRU assay (lysosomal activity), HepG2. Type of series: cell-based, human. How it is done:
as §5, §6, §9, §8

Series [10] has as its system Balb/c 3T3 fibroblasts. The experiment in a line: LDH leakage assay (cellular membrane integrity), Balb/c 3T3. Type of series: cell-based, murine. On the procedure:
as §5, §6
LDH leakage assay. The integrity of the plasma membrane was assessed through the test of lactate dehydrogenase (LDH) release, which was monitored using the commercially available Cytotoxicity Detection Kit (LDH) (Roche Diagnostics, Warsaw, Poland). The medium (100 μL/well) without cells was transferred into the corresponding wells of an optically clear 96-well flat-bottom microplate, and 100 μL of reaction mixture was added to each well. Then, the plates were incubated for 30 min at room temperature in darkness. After that time, 50 μL/well of 1 M HCl was added to stop the reaction. The absorbance was measured at 492 nm in a microplate reader (Synergy HTX multi-mode reader (BioTek® Instruments Inc., Winooski, VT, USA)) using a blank as a reference.
as §8

Series [11] has as its system HepG2 cells. Put plainly: TPC assay (total protein content), HepG2. Type of series: cell-based, human. On the procedure: as §5, §6, §10, §8
For series [12], the system named is Balb/c 3T3 fibroblasts. The experiment in a line: MTT assay (mitochondrial activity), Balb/c 3T3. The format is cell-based, murine. On the procedure:
as §5, §6, §7, §8

The mark [13] stands for this setting: HepG2, MTT, 72 h exposure, mean (n = 3) ± SD.
Setting [14] is: Balb/c 3T3, NRU, 72 h exposure, mean (n = 3) ± SD.
[15] abbreviates: Balb/c 3T3, TPC, 72 h exposure, mean (n = 3) ± SD.
Setting [16] is: HepG2, NRU, 72 h exposure, mean (n = 3) ± SD.
Where [17] appears, read: Balb/c 3T3, LDH, 72 h exposure, mean (n = 3) ± SD.
[18] abbreviates: HepG2, TPC, 72 h exposure, mean (n = 3) ± SD.
Setting [19] is: Balb/c 3T3, MTT, 72 h exposure, mean (n = 3) ± SD.

Molecules are shown by their SMILES. Like-named read-outs stand apart in the source and are kept apart here.

For `Clc1ccc(COC(Cn2ccnc2)c2ccc(Cl)cc2Cl)c(Cl)c1` (stereo not shown) [Miconazole, 1-[2-(2,4-dichlorobenzyloxy)-2-(2,4-dichlorophenyl)ethyl]-1H-imidazole], in series [1], the “concentration inhibiting the proliferation of human cancer cells” value was at most 10 µM. In addition, the “toxicity to the cell line (in words)” value with HepG2 cells [2] and in the series with Balb/c 3T3 fibroblasts [4] was “not toxic” each time. For the same molecule, the solubility result is “soluble” in series [3] (ethanol), “hardly soluble” in series [3] (methanol) and “practically insoluble” in series [3] (water).

What is called IC20 is the concentration at which the effect reaches the 20% level. For orientation: IC50 means the concentration at which inhibition is half-maximal. For `O=[N+]([O-])[O-].[Ag+]` [AgNO3, Silver nitrate], the IC20 in the series on HepG2 cells [5], with Balb/c 3T3 fibroblasts [6], with Balb/c 3T3 fibroblasts [7], in the series with HepG2 cells [8], in the series on HepG2 cells [9] and in the series on Balb/c 3T3 fibroblasts [10] was above 1 µM in each case. Moreover, the IC20 with HepG2 cells [11] and in the series on Balb/c 3T3 fibroblasts [12] was above 1 µM throughout. Besides, the IC50 with HepG2 cells [5], with Balb/c 3T3 fibroblasts [6], with Balb/c 3T3 fibroblasts [7], in the series with HepG2 cells [8], in the series on HepG2 cells [9] and with Balb/c 3T3 fibroblasts [10] was above 1 µM throughout. In addition, the IC50 with HepG2 cells [11] and in the series with Balb/c 3T3 fibroblasts [12] was above 1 µM each time.

`N.N.[Cl][Pt][Cl]` [Cisplatin, cis-diamminedichloroplatinum(II)]: the IC20 was below 0.0001 µM in the series on HepG2 cells [5] (setting [13]); above 1 µM in the series with Balb/c 3T3 fibroblasts [6] (setting [14]); above 1 µM in the series with Balb/c 3T3 fibroblasts [7] (setting [15]); below 0.0001 µM in the series with HepG2 cells [9] (setting [16]); above 1 µM in the series with Balb/c 3T3 fibroblasts [10] (setting [17]); below 0.0001 µM in the series with HepG2 cells [11] (setting [18]). The IC20 with Balb/c 3T3 fibroblasts [12] (setting [19]) was above 1 µM. The concentration for half-maximal inhibition (IC50) in the series with HepG2 cells [5] (setting [13]) is above 1 µM; with Balb/c 3T3 fibroblasts [6] (setting [14]) it was above 1 µM; in the series with Balb/c 3T3 fibroblasts [7] (setting [15]), above 1 µM; with HepG2 cells [8] (HepG2, LDH, 72 h exposure, mean (n = 3) ± SD), 0.01 ± 0.001 µM; with HepG2 cells [9] (setting [16]), above 1 µM; in the series with Balb/c 3T3 fibroblasts [10] (setting [17]), above 1 µM. Further, the IC50 in the series on HepG2 cells [11] (setting [18]) and in the series on Balb/c 3T3 fibroblasts [12] (setting [19]) was above 1 µM each time.
